Measured values as given in patent publication US20240381870A1 (priority 2024, published 2024).

What was measured:
[1] = tested on: Fusarium pseudogramineaqum; format: cell-based
[2] = tested on: wheat scab; format: in vivo; conditions: in words; field experiments of both sites (Tables 3 and 4)
[3] = tested on: Fusarium graminearum; format: cell-based; conditions: mycelial growth inhibition, PDA, 25° C.

Row | SMILES | EC50 ppm [1] | control effect on wheat scab [2] | EC50 ppm [3]
1 | CCCN(CCOc1c(Cl)cc(Cl)cc1Cl)C(=O)n1ccnc1 [Prochloraz(P), Prochloraz] | 0.2311 ppm | significant control effect | 0.2663 ppm
2 | O=C(NC1CCC1c1ccc(Cl)cc1Cl)c1cccnc1C(F)(F)F (stereo not drawn) [Cyclobutrifluram(C), Cyclobutrifluram] | 0.1276 ppm | significant control effect | 0.3744 ppm
